According to paper PMC7259758 (PLoS ONE, 2020):
Like-named read-outs stand apart in the source and are kept apart here.

How the values were obtained:
[1] = tested on: CLK1; design: method as in PMID 29191878; details: chemoproteomic analysis; read-out: affinity for CLK1 (IC50); cited from earlier work
[2] = tested on: triple-exon skipping of MDM2 pre-mRNA in SK-MEL-2/Luc-MDM2 cells; experiment: TESLR (Triple Exon Skipping Luciferase Reporter) dose response; details: for TESLR Maximum fold change: 4 hours; for EC50: read-out: TESLR EC50
Method: SK-MEL-2/MDM2-Luc stable cells were cultured in MEM medium with Earle's salts and L-glutamine containing 1 mM sodium pyruvate, 10% FCS and 10 mM Hepes and plated at a density of 10,000/well in 96-well plates and incubated overnight at 37°C in 5% CO2. The following day, cells were treated with serial dilutions of compounds for 4 hrs, ONE-Glo reagents (Promega) were added to measure the luciferase activity on an EnVision plate reader. SD6 and 0.5% DMSO were used as positive and negative controls, respectively. Relative luminescent units were plotted against corresponding drug concentrations and fitted with a standard four parameter sigmoidal curve with GraphPad Prism.
The TESLR assay in SK-MEL-2/Luc-MDM2 cells with 4 hour treatment. SK-MEL-2/Luc-MDM2 stable cells were plated at a density of 20,000 cells/well in 96-well plates and incubated overnight at 37°C in 5% CO2. The following day, cells were treated with either 0.5% DMSO or serial dilution of hits identified from the library screen in 0.5% DMSO for 4 hours. ONE-Glo™ EX reagent (Promega) was added to measure the luciferase activity using an EnVision plate reader. Relative luminescent units were plotted against corresponding drug concentrations and fitted with a standard four parameter sigmoidal curve with GraphPad Prism.
SK-MEL-2/Luc-MDM2 stable cells were plated at a density of 20,000 cells/well in 96-well plates and incubated overnight at 37°C in 5% CO2. The following day, cells were treated with serial dilutions of the indicated compounds for 4 hours and ONE-Glo™ EX reagents (Promega) were added to measure the luciferase activity.

[3] = biological target: T1, AKT3 (Homo sapiens, UniProt Q9Y243); experiment: Radiometric protein kinase assay (Eurofins); type: biochemical; details: ATP 45 μM
T1 construct: purchased Eurofins, Dundee, Scotland
Method: (§1) Enzymatic biochemical activities were evaluated in radiometric protein kinase assays (Eurofins, Dundee, Scotland). Kinases are incubated with buffer, substrate and [γ-^33P]-ATP (specific activity approx. 500 cpm/pmol, concentration as required). The reaction is initiated by the addition of the MgATP mix. After incubation for 40 minutes at room temperature, the reaction is stopped by the addition of 3% phosphoric acid solution. 10 μL of the reaction is then spotted onto a P30 filtermat and washed three times for 5 minutes in 75 mM phosphoric acid and once in methanol prior to drying and scintillation counting. All compounds are prepared to 50x final assay concentration in 100% DMSO. Positive control wells contain all components of the reaction with 2% DMSO. Blank wells contain all components of the reaction, with a reference inhibitor replacing the compound of interest. Each kinase is assigned a standard assay concentration of ATP within 20 μM of its apparent Km. Compounds were screened at 1 μM in duplicate or tested at 10 concentrations at half log dilution starting from 10 μM in singlicate. Dose response curves were fitted with four parameter logistic curve to obtain IC50 values. […]
(§2) Staurosporine is used as reference for all tested enzymes except for SRPK3 (reference inhibitor: K-252a. Nocardiopsis sp), NEK2 (reference inhibitor: […]), and CK2, CK2α2, MAPK1, MAPK2 (reference inhibitor: PKR Inhibitor). See Table 1 below for additional details.

[4] = biological target: T2, GSK3α(h) (Homo sapiens, UniProt P49840); experiment: Radiometric protein kinase assay (Eurofins); type: biochemical; details: ATP 10 μM
T2 construct: purchased Eurofins, Dundee, Scotland
Method: as §1, §2

[5] = biological target: T3, CK2 (h) (Homo sapiens, UniProt P68400); experiment: Radiometric protein kinase assay (Eurofins); type: biochemical; details: ATP 10 μM
T3 construct: purchased Eurofins, Dundee, Scotland
Method: as §1, §2

[6] = biological target: T4, DYRK1A(h) (Homo sapiens, UniProt Q13627); experiment: Radiometric protein kinase assay (Eurofins); type: biochemical; details: ATP 45 μM
T4 construct: purchased Eurofins, Dundee, Scotland
Method: as §1, §2

[7] = biological target: T5, CLK3(h) (Homo sapiens, UniProt P49761); experiment: Radiometric protein kinase assay (Eurofins); type: biochemical; details: ATP 90 μM
T5 construct: purchased Eurofins, Dundee, Scotland
Method: as §1, §2

[8] = biological target: T6, DYRK1B (h) (Homo sapiens, UniProt Q9Y463); experiment: Radiometric protein kinase assay (Eurofins); type: biochemical; details: ATP 45 μM
T6 construct: purchased Eurofins, Dundee, Scotland
Method: as §1, §2

[9] = biological target: T7, CLK1(h) (Homo sapiens, UniProt P49759); experiment: Radiometric protein kinase assay (Eurofins); type: biochemical; details: ATP 10 μM
T7 construct: purchased Eurofins, Dundee, Scotland
Method: as §1, §2

[10] = biological target: T8, SRPK1(h) (Homo sapiens, UniProt Q96SB4); experiment: Radiometric protein kinase assay (Eurofins); type: biochemical; details: ATP 10 μM
T8 construct: purchased Eurofins, Dundee, Scotland
Method: as §1, §2

[11] = biological target: T9, MAPK2 (h) (Homo sapiens, UniProt P28482); experiment: Radiometric protein kinase assay (Eurofins); type: biochemical; details: ATP 155 μM
T9 construct: purchased Eurofins, Dundee, Scotland
Method: as §1, §2

[12] = biological target: T10, SRPK2 (h) (Homo sapiens, UniProt P78362); experiment: Radiometric protein kinase assay (Eurofins); type: biochemical; details: ATP 10 μM
T10 construct: purchased Eurofins, Dundee, Scotland
Method: as §1, §2

[13] = biological target: T11, CK2α2 (h) (Homo sapiens, UniProt P19784); experiment: Radiometric protein kinase assay (Eurofins); type: biochemical; details: ATP 10 μM; read-out: CK2a2 IC50
T11 construct: purchased Eurofins, Dundee, Scotland
Method: as §1, §2

[14] = biological target: T12, CLK4(h) (Homo sapiens, UniProt Q9HAZ1); experiment: Radiometric protein kinase assay (Eurofins); type: biochemical; details: ATP 10 μM
T12 construct: purchased Eurofins, Dundee, Scotland
Method: as §1, §2

[15] = biological target: T13, MAPK1 (h) (Homo sapiens, UniProt P27361); experiment: Radiometric protein kinase assay (Eurofins); type: biochemical
T13 construct: purchased Eurofins, Dundee, Scotland
Method: as §1, §2

[16] = biological target: T14, DYRK2 (h) (Homo sapiens, UniProt Q92630); experiment: Radiometric protein kinase assay (Eurofins); type: biochemical; details: ATP 15 μM
T14 construct: purchased Eurofins, Dundee, Scotland
T14 sequence (Q92630 1-601): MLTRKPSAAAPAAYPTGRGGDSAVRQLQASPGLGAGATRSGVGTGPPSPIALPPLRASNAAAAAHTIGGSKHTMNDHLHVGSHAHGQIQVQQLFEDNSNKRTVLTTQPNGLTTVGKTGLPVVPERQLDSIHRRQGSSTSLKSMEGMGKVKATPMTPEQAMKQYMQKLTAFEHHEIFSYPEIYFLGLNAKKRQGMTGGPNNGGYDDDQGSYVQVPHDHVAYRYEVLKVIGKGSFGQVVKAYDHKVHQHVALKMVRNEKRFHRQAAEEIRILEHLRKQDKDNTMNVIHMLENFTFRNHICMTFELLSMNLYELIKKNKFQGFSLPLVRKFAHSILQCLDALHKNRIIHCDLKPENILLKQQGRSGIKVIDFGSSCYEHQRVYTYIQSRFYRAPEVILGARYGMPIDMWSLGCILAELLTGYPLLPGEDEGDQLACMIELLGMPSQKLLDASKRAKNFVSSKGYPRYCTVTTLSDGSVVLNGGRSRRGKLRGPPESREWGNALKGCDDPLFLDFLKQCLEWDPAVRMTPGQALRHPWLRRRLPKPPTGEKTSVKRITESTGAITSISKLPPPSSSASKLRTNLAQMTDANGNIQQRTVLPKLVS
Method: as §1, §2

[17] = biological target: T15, SRPK3 (h) (Homo sapiens, UniProt Q9UPE1); experiment: Radiometric protein kinase assay (Eurofins); type: biochemical; details: ATP 15 μM
T15 construct: purchased Eurofins, Dundee, Scotland
Method: as §1, §2

[18] = tested on: MDM2 pre-mRNA splicing in Rh18 cells; experiment: RT-PCR confirmation of splicing changes, MDM2; type: cell-based; details: 4 h, SD6 10 μM, compound 1 10 μM, compound 2 5 μM, compound 3 10 μM
Method: RH-18 cells were cultured in RPMI 1640 medium containing 10% FCS. Cells are all maintained in humidified incubator with 5% CO2 at 37°C. Rh18 cells were exposed to 0.5% DMSO or SD6 10 μM, Cpd1 10 μM, Cpd2 5 μM or Cpd3 10 μM for 4 h. Total RNA was extracted and converted to cDNA. PCR was performed using NEB Q5 Master Mix and specific primers listed below (Table 2) according to the manufacturer’s instruction and standard PCR protocols: 50 ng cDNA and 30 μl of the final reaction volume was used. PCR products were subjected to 3% agarose gel electrophoresis.
AS patterns were identified with compound treatment for MDM2 and RBM39 transcripts. Ubiquitin (UBQ) transcripts were used as a control since these are not spliced. […] Rh18 cells were treated with either DMSO control or compounds for 4 h. Total RNA was extracted and converted to cDNA. PCR was performed using corresponding primers and PCR products were subjected to 3% agarose gel electrophoresis.

[19] = tested on: phosphorylation of SF3B1; experiment: Western blot of nuclear extracts, phosphor-SF3B1; details: 4 h
Method: (§3) HCT116 cells were seeded at 3 million cells per 100 mm culture plate. The next day cells were treated with 5 μM or 10 μM of each compound for 4h and 8h. […] The pellet was snap frozen on dry ice and then thawed and spun at 12K rpm for 5 min, 4C. The supernatant was collected (nuclear extract) and protein concentrations determined using BCA Protein Assay Kit. […] The proteins were transferred to PVDF membrane using a wet transfer system. […] After the secondary antibody incubation, membranes were washed 4X with PBS containing 0.1% Tween-20 and 1X with PBS before imaging using the Li-Cor Odyssey imaging system.
(§4) Lanes 6 to 10 are nuclear extracts from Rh18 cells.

[20] = biological target: T16, SF3B1 (Homo sapiens, UniProt O75533+Q7RTV0); experiment: Competitive antagonist assay (TESLR in the presence of SD6 or hit compound); type: cell-based; details: for IC50: 1 h pre-treatment with analog, then 4 μM SD6 for another 4 hours, read-out: IC50 for antagonism of SD6 activity in the TESLR assay
T16 construct: endogenous in cells
Method: SK-MEL-2/Luc-MDM2 stable cells were plated at a density of 20,000 cells/well in 96-well plates and incubated overnight at 37°C in 5% CO2.[27, 28] The following day, cells were treated with 14 analogs using serial dilution for one hour. The list of compounds screened as potential TESLR antagonists are show in SI file. After one-hour pre-treatment, 4 μM of SD6 were added to the pre-treated cells for another 4 hours. Either 0.5% DMSO or serial dilutions of SD6 were used to treat cells for 4 hours as controls. At the end of incubation time, ONE-Glo™ EX reagents (Promega) were added to measure the luciferase activity. […]
Fig 6 Competitive antagonist assay. (Left Panel) The assay that identified two antagonists of SD6 activity in the TESLR screen, which are useful for the determination of SF3B1 binding. Relative luminescent units were plotted against corresponding drug concentrations and fitted with a standard four parameter sigmoidal curve with GraphPad Prism. (Right Panel) The structures of the antagonists and SD6. See SI for chemistry details.
. SK-MEL-2/Luc-MDM2 stable cells were plated at a density of 20000/well in 96-well plates and incubated overnight at 37°C in 5% CO2. […]. After one-hour pre-treatment, serial dilutions of the sudemycinol C were added to the pre-treated cells for another 4 hours. […]. At the end of incubation time, ONE-Glo™ EX reagents (Promega) were added to measure the luciferase activity. […]. DR: dose response.

[21] = biological target: T17, CDK2/cyclinA (h) (Homo sapiens, UniProt P24941); experiment: Radiometric protein kinase assay (Eurofins); type: biochemical; details: ATP 45 μM
T17 construct: purchased Eurofins, Dundee, Scotland
Method: Enzymatic biochemical activities were evaluated in radiometric protein kinase assays (Eurofins, Dundee, Scotland). Kinases are incubated with buffer, substrate and [γ-^33P]-ATP (specific activity approx. 500 cpm/pmol, concentration as required). The reaction is initiated by the addition of the MgATP mix. After incubation for 40 minutes at room temperature, the reaction is stopped by the addition of 3% phosphoric acid solution. 10 μL of the reaction is then spotted onto a P30 filtermat and washed three times for 5 minutes in 75 mM phosphoric acid and once in methanol prior to drying and scintillation counting. All compounds are prepared to 50x final assay concentration in 100% DMSO. Positive control wells contain all components of the reaction with 2% DMSO. Blank wells contain all components of the reaction, with a reference inhibitor replacing the compound of interest. […] Compounds were screened at 1 μM in duplicate or tested at 10 concentrations at half log dilution starting from 10 μM in singlicate. Dose response curves were fitted with four parameter logistic curve to obtain IC50 values.

[22] = tested on: phosphorylation of SR proteins; experiment: Western blot of nuclear extracts, phosphor-SR proteins; details: HCT116 and Rh18 cells, 4 h; SD6 10 μM, compound 1 10 μM, compound 2 5 μM, compound 3 10 μM
Method: as §3, §4

[23] = Homo sapiens, SK-MEL-2, 4 h, read-out: TESLR IC50 in inducing triple exon skipping
[24] = SK-MEL-2/Luc-MDM2 cells, luciferase activity
[25] = SK-MEL-2/Luc-MDM2 cells, 4 hour treatment, luciferase activity

T10 sequence (P78362 whole entry): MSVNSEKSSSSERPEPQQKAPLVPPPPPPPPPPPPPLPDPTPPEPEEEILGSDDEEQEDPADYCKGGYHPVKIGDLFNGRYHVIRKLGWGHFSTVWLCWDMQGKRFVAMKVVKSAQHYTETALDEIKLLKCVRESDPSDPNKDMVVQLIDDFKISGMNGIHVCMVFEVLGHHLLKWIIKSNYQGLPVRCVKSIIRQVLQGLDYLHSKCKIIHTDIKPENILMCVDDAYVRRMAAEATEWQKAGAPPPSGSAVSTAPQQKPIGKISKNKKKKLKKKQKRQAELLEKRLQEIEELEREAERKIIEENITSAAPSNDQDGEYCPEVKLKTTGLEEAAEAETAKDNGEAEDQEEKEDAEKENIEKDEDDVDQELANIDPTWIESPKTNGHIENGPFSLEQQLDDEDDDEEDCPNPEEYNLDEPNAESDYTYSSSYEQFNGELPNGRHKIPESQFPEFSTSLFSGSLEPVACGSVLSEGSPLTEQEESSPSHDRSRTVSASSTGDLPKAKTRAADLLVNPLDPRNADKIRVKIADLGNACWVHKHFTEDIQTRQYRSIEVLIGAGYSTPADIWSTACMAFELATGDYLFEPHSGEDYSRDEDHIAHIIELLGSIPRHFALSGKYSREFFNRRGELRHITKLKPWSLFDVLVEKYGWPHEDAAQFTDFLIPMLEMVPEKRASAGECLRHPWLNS
T2 sequence (P49840 whole entry): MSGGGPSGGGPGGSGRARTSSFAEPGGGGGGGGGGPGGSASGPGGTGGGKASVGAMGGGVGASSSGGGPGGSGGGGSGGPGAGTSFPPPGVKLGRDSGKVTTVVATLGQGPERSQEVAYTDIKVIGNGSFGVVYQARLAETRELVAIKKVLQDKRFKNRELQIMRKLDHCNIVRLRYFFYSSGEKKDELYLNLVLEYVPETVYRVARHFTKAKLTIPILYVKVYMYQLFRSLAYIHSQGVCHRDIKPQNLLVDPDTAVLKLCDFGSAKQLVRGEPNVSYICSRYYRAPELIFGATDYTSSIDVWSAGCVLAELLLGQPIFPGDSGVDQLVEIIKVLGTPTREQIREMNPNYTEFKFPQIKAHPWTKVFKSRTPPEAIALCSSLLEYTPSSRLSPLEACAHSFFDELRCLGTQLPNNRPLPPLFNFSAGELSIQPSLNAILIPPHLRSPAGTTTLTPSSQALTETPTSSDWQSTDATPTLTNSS
T11 sequence (P19784 whole entry): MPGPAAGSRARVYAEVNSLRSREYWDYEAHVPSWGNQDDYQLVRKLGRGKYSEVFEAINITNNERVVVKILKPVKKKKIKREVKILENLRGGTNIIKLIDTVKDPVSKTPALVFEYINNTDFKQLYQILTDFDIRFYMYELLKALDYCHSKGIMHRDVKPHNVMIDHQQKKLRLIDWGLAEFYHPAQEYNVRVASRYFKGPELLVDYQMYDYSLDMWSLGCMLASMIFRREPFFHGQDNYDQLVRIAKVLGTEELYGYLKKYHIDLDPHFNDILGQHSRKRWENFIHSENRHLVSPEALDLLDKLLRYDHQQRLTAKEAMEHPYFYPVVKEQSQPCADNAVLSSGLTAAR
T5 sequence (P49761 whole entry): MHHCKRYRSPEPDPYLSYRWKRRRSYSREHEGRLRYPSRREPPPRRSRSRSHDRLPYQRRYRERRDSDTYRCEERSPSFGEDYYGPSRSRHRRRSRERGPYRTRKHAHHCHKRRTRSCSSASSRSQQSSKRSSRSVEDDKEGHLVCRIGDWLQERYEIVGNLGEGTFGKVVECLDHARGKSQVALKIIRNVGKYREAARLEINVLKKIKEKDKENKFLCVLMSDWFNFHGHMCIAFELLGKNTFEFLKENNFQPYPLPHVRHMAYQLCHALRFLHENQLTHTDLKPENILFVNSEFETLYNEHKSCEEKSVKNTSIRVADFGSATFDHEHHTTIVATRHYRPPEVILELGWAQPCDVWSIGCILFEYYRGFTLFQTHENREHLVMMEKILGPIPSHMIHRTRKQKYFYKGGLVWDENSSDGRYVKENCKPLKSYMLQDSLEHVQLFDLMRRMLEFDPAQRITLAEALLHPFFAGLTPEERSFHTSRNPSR
T6 sequence (Q9Y463 whole entry): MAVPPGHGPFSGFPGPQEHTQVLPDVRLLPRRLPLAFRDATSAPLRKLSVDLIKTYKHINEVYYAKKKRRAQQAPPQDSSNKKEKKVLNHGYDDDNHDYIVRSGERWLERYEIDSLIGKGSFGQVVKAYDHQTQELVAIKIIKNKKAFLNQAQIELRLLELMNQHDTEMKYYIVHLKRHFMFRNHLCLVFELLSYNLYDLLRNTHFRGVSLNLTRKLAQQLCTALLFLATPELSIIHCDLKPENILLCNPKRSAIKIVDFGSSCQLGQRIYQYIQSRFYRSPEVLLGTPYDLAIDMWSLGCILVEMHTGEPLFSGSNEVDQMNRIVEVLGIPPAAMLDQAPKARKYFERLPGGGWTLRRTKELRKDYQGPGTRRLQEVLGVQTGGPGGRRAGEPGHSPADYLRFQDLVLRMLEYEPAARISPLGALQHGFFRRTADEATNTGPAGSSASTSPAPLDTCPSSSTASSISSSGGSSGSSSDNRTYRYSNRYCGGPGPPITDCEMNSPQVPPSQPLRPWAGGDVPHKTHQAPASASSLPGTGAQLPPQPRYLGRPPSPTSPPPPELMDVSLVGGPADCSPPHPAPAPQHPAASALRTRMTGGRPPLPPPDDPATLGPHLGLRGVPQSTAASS
T15 sequence (Q9UPE1 whole entry): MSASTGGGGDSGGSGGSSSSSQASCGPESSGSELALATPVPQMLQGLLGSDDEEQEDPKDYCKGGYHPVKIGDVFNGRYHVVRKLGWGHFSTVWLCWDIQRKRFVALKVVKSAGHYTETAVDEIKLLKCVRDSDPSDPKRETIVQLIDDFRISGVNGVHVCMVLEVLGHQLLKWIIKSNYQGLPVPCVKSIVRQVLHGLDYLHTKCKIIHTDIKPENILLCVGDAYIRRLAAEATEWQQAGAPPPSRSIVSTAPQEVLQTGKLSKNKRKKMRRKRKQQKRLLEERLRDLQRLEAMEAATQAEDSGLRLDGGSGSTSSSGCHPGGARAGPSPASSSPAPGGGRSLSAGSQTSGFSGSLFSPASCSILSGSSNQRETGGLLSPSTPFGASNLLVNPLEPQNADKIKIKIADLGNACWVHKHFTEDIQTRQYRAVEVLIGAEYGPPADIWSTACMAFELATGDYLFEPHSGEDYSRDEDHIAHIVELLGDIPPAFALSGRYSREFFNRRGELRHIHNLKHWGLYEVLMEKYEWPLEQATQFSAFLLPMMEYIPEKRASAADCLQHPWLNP
T12 sequence (Q9HAZ1 whole entry): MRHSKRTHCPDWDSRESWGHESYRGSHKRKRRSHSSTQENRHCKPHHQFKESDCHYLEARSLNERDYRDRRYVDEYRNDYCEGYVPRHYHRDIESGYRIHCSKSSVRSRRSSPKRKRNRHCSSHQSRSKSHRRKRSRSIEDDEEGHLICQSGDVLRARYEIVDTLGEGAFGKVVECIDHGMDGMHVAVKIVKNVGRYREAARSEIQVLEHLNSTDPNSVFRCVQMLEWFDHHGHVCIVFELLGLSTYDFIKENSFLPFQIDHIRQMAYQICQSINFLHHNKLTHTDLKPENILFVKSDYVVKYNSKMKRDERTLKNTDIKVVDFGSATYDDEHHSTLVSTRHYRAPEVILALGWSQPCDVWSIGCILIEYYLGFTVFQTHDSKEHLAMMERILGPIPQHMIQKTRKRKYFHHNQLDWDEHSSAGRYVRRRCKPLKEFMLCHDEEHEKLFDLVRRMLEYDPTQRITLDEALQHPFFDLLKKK
T3 sequence (P68400 whole entry): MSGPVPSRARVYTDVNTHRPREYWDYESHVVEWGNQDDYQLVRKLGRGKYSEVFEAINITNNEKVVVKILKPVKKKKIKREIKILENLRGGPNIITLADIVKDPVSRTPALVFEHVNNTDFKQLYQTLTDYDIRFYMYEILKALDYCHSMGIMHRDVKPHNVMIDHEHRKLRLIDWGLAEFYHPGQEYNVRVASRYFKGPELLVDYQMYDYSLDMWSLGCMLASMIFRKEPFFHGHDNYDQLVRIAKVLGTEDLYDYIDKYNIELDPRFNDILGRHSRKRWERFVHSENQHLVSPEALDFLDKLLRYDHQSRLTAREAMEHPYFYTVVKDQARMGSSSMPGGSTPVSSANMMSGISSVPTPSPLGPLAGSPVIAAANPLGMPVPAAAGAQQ
T3 sequence (P67870 whole entry partner): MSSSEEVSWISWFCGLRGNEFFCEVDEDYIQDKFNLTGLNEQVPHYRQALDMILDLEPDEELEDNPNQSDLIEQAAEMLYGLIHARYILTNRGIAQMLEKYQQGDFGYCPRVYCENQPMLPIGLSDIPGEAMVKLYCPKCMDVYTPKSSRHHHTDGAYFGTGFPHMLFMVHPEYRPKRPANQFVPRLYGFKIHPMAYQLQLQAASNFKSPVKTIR
T7 sequence (P49759 whole entry): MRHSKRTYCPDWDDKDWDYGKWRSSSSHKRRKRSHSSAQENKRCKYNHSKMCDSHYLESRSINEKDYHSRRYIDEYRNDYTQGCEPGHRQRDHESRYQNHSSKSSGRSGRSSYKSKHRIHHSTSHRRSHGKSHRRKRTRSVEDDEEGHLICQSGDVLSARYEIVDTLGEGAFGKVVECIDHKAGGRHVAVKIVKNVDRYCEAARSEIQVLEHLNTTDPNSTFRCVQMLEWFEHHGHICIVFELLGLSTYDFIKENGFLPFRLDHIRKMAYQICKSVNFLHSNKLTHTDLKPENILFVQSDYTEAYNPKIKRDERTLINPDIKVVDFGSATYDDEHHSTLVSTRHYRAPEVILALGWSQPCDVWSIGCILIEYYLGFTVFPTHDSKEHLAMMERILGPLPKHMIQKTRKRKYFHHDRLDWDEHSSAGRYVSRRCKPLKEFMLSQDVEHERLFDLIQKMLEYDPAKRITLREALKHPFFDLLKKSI

CC(=O)c1c(C)c2cnc(Nc3ccc(N4CCNCC4)cn3)nc2n(C2CCCC2)c1=O [palbociclib]
IC50 [1]: 0.276 µM
IC50 ([2]; Homo sapiens, SK-MEL-2, 4 h, read-out: TESLR IC50 (as printed in Fig 5)): ~291 µM
IC50 [2, 23]: 10 to 300 µM
TESLR Maximum fold change [2, 24]: 2.92

COc1ncc2cc(C(=O)Nc3cc(C(=O)NCc4cccc(Cl)c4)ccc3Cl)c(=O)[nH]c2n1 [Mirk-IN-1]
TESLR Maximum fold change [2, 24]: 30.7
EC50 [2, 25]: 15 µM

O=C(O)c1ccc2c(c1)nc(Nc1cccc(Cl)c1)c1ccncc12 [silmitasertib]
EC50 ([2]; Homo sapiens, SK-MEL-2, 4 h): 19.9 µM
IC50 [2, 23]: 10 to 300 µM
TESLR Maximum fold change [2, 24]: 31.5

CN(c1ncccc1CNc1nc(Nc2ccc3c(c2)CC(=O)N3)ncc1C(F)(F)F)S(C)(=O)=O [Compound 3, PF-562271]
AKT3 IC50 [3]: NA (NA: Not Active (less than 50% inhibition at 1 micromolar))
IC50 [4]: 0.221 µM
CK2 IC50 [5]: NA (NA: Not Active (less than 50% inhibition at 1 micromolar))
DYRK1A IC50 [6]: NA (NA: Not Active (less than 50% inhibition at 1 micromolar))
CLK3 IC50 [7]: NA (NA: Not Active (less than 50% inhibition at 1 micromolar))
DYRK1B IC50 [8]: NA (NA: Not Active (less than 50% inhibition at 1 micromolar))
IC50 [9]: 0.141 µM
SRPK1 IC50 [10]: NA (NA: Not Active (less than 50% inhibition at 1 micromolar))
IC50 [11]: 0.863 µM
SRPK2 IC50 [12]: NA (NA: Not Active (less than 50% inhibition at 1 micromolar))
IC50 [13]: 0.374 µM
IC50 [14]: 0.155 µM
MAPK1 IC50 [15]: NA (NA: Not Active (less than 50% inhibition at 1 micromolar))
DYRK2 IC50 [16]: NA (NA: Not Active (less than 50% inhibition at 1 micromolar))
SRPK3 IC50 [17]: NA (NA: Not Active (less than 50% inhibition at 1 micromolar))
MDM2 alternative splicing (AS) pattern by RT-PCR [18]: dominant MDM2 transcript (the same size as the DMSO control) and an AS isoform of 785 bp
Effect on phosphorylation of SF3B1 (immunoblot) ([19]; HCT116 cells, 10 μM): inhibited the phosphorylation of SF3B1 protein in HCT116 cells
Antagonism of the compound's TESLR activity by sudemycinol C ([20]; 6 μM compound for one hour, then serial dilutions of sudemycinol C for another 4 hours): did not antagonize
EC50 [2, 25]: 5.56 µM
IC50 [21]: 0.203 µM

CC(C=CC1CC2(CO2)CC(C)(C)O1)=CCC1OCC(NC(=O)C=CC(C)O)CO1 (centres unmarked) [Sudemycinol E, sudemycinol E]
IC50 [20]: 16.1 µM

CC(C)(C)c1cnc(CSc2cnc(NC(=O)C3CCNCC3)s2)o1 [SNS-032]
IC50 [2, 23]: > 10 µM

CC(C=CC1CC2(CO2)CC(C)(C)O1)=CCC1CCC(NC(=O)C=CC(C)O)CC1 (centres unmarked) [Sudemycinol C, sudemycinol C]
IC50 [20]: 0.97 µM

CNC(=O)OC(C)C=CC(=O)NC1CCC(CC=C(C)C=CC2CC3(CO3)CC(C)(C)O2)CC1 (centres unmarked) [SD6, sudemycin D6]
MDM2 alternative splicing (AS) pattern by RT-PCR [18]: dominant AS isoform at size of 1019 bp
Effect on phosphorylation of SF3B1 (immunoblot) ([19]; HCT116 and Rh18 cells, SD6 10 μM, compound 1 10 μM, compound 2 5 μM): did inhibit the phosphorylation of SF3B1
EC50 ([2]; Homo sapiens, SK-MEL-2, 4 h): 0.862 µM
TESLR Maximum fold change [2, 24]: 28.3
Effect on phosphorylation of SR proteins (immunoblot) [22]: did not inhibit the phosphorylation of SR proteins

CN1CC[C@H](c2c(O)cc(O)c3c(=O)cc(-c4ccccc4Cl)oc23)[C@H](O)C1 [flavopiridol]
IC50 [2, 23]: > 10 µM
